# How the values were obtained:
# [1] = test system: HCT116 and HCT116/OxR cells; assay: In vitro platinum cell uptake by ICP-MS; type: cell-based, human; conditions: 3 h exposure
# Procedure: Cells were seeded at 1.5 ×10^5 cells/well in six-well plates in 1.5 mL and after 24 h recovery treated with 500 µL of compounds at the indicated concentrations in triplicates. After 3 h drug exposure, cells were detached, washed twice with phosphate-buffered saline (PBS), dried at RT for 15 min and lysed in 100 µL HNO3 (69%, Rotipuran Supra, Carl Roth, Karlsruhe, Germany) for 1 h at RT. The lysate was added to fresh tubes containing 200 µL ddH2O. ICP-MS measurements were performed with an Agilent 8800 ICP-MS/MS instrument (Agilent Technologies, Tokyo, Japan). The sample introduction system consisted of a MicroMist nebulizer (200 μL min^−1 nominal sample uptake) and a quartz double-pass spray chamber. The instrument was tuned on a daily basis in order to achieve maximum sensitivity, low oxide formation, and low doubly charged ratios. Platinum was monitored in no gas mode with an integration time of 0.3 s. The flow injection measurements were performed with a bioinert HPLC 1260 (Agilent Technologies, Waldbronn, Germany), which was directly connected to the nebulizer of the ICP-MS/MS instrument with a PEEK tubing. The following chromatographic conditions were used: injection volume: 10 µL; flow rate: 0.30 mL min^-1; isocratic elution; CH3COONH4 (50 mM, pH = 6.8) aqueous solution was employed as mobile phase. The data were recorded and evaluated with the Agilent MassHunter Chromatography software package, MassHunter 4.6., 2019.
# [2] = test system: kidney, lung, liver sections; assay: pH2AX DNA damage staining in healthy organs; type: in vivo, BALB/c mice; conditions: lung and kidney sections
# Procedure: (§1) Eight-to nine-week-old female BALB/c mice bred in-house (originally Janvier) were kept in pathogen-free conditions and controlled environment with 12 h light-dark cycle. CT26 cells (5 × 10^5 in 50 µL serum-free RPMI medium) were injected subcutaneously (s.c.) into the right flank of the animals. […] Tumor growth was evaluated by daily recording of tumor size by caliper measurement. […] The reasons were primarily either enhanced tumor size or ulceration. For drug distribution (digestion and ICP-MS measurement details see below), histological and GSH determination experiments, mice were treated twice during one week and sacrificed 24 h after the last drug dosing. The animal experiments were performed according to the regulations of the Ethics Committee for the Care and Use of Laboratory Animals at the Medical University Vienna (proposal number BMBWF-V/3b 2020-0.380.502).
# (§2) Formalin-fixed, paraffin-embedded tissue sections were prepared from tumors and animal organs (animal experiment details see above) and H&E stains performed by standard methods. Mouse-specific Ki-67 rabbit mAb (#12202) and mouse-specific pH2AX rabbit mAb (#9718) were purchased from Cell Signaling Technology (Beverly, MA, USA) and used following the manufacturer’s recommendations in a dilution of 1:200 (Ki-67) and 1:500 (pH2AX) for immunohistochemical staining.
# Tolerability in mice = type: in vivo, BALB/c mice
# Procedure: as §1
# CT26 allografts = assay: In vivo anticancer activity, CT26 allografts; parameters: species or system BALB/c mice; conditions: for tumor doubling time extended: CT26 allografts, equimolar doses; for tumor doubling time extended / maximal tumor growth inhibition: twice a week for two weeks; for maximal tumor growth inhibition: day 11, CT26 allografts, equimolar to 9 mg/kg oxaliplatin i.v.; for tumor volumes as compared to solvent controls: first two weeks of treatment
# Procedure: as §1
# CT26 tumor tissue = assay: Tumor tissue markers (mitoses, Ki-67, pH2AX, GSH) after one week of therapy; type: in vivo, BALB/c mice; conditions: for number of mitotic tumor cells as compared to solvent controls: H&E-stained sections
# Procedure: (§3) Eight-to nine-week-old female BALB/c mice bred in-house (originally Janvier) were kept in pathogen-free conditions and controlled environment with 12 h light-dark cycle. CT26 cells (5 × 10^5 in 50 µL serum-free RPMI medium) were injected subcutaneously (s.c.) into the right flank of the animals. […] Tumor growth was evaluated by daily recording of tumor size by caliper measurement. […] For drug distribution (digestion and ICP-MS measurement details see below), histological and GSH determination experiments, mice were treated twice during one week and sacrificed 24 h after the last drug dosing. The animal experiments were performed according to the regulations of the Ethics Committee for the Care and Use of Laboratory Animals at the Medical University Vienna (proposal number BMBWF-V/3b 2020-0.380.502).
# as §2
# (§4) GSH levels in HCT116 and HCT116/OxR cells (7.5 × 10^4 cells per well in 96-well plates, in triplicate), or in CT26 tumor tissues (25–50 mg/sample) were determined using the luminescence-based detection system GSH/GSSG-Glo^TM assay (Promega, Madison, WI) following the manufacturer’s recommendations. Quantifications are based on the comparison with a GSH standard curve delivered in the assay and normalized to the total protein content of the samples determined by the Micro BCA^TM protein assay kit (Thermo Scientific).
# [3] = Serum pharmacokinetics (platinum by ICP-MS) after single dose; type: in vivo, BALB/c mice; conditions: for serum half-life (fast), two-phase decay model / serum half-life (slow), two-phase decay model / serum half-life, one-phase decay model: serum platinum
# Procedure: Blood was drawn after 5 min, 30 min, 6 h, 24 h, 72 h, 1 and 2 weeks from the facial vein as published. Serum was isolated by centrifugation at 900 g for 10 min for two times and stored at –80 °C. In addition, blood samples and tissues from the allograft experiment after the two-weeks therapy experiment were analyzed. Digestion of tissue (approx. 10–30 mg gravimetrically weighted) was performed with 2 mL of approx. 20% nitric acid and 100 µL H2O2 using an open vessel graphite digestion system (coated graphite heating plate, coated sample holder-top for 25 mL vials, perfluoroalkoxy (PFA) vials and PFA lids; Labter, ODLAB; AHF Analysentechnik AG; Germany). HNO3 (67–69%, suprapur for trace metal analysis, NORMATOM; VWR international, Austria) and conc. H2O2 suprapur (Merck, 30%) were used without further purification. Ultrapure water (18.2 MΩ cm, Milli-Q Advantage, Darmstadt, Germany) was used for all dilutions for ICP-MS measurements. Platinum and rhenium standards for ICP-MS measurements were derived from CPI International (Amsterdam, The Netherlands). The platinum content was determined using an Agilent 7800 ICP-MS instrument. The ICP-MS Agilent 7800® (Agilent Technologies, Tokyo, Japan) was equipped with an Agilent SPS 4 autosampler (Agilent Technologies, Tokyo, Japan) and a MicroMist nebulizer at a sample uptake rate of approx. 0.2 mL/min. The Agilent MassHunter® software package (Workstation Software, version C.01.04, Build 544.17, Patch 3, 2018) was used for data processing. The instrument was tuned on a daily basis to achieve maximum sensitivity. In case of the single-dose experiment, serum area-under the curve (AUC) and serum half-life (one-phase and two-phase decay models) were determined using the respective non-linear fit regression models of GraphPad Prism software.
# [4] = test system: HCT116 and HCT116/OxR cells; assay: Cellular GSH content (GSH/GSSG-Glo); type: cell-based, human; conditions: 24 h exposure, single agent
# Procedure: as §4
# HCT116/OxR cells = assay: 72 h cell viability (MTT) assay; type: cell-based, human; conditions: HCT116/OxR, 72 h continuous exposure; read-out: IC50 value (95% confidence interval)
# Procedure: Absorbance was measured at 450 nm (at 620 nm as reference) using the multimode plate reader Tecan Infinite 200 Pro (Zurich, Switzerland). Cytotoxicity was expressed as IC50 values calculated from full dose-response curves using the 4 parameter nonlinear regression model of GraphPad Prism 8 software (La Jolla, CA, USA).
# HCT116 cells = assay: 72 h cell viability (MTT) assay; type: cell-based, human; conditions: HCT116, 72 h continuous exposure; read-out: IC50 value (95% confidence interval)
# Procedure: (§5) Cells were seeded (3–4 ×10^3 cells/well) in 96-well plates in 100 µL and after 24 h recovery treated with 100 µL of compounds at the indicated concentrations in triplicates. After 72 h drug exposure cell viability was determined by 3-(4,5-dimethylthiazol-2-yl)-2,5-diphenyltetrazolium bromide (MTT)-vitality assay (EZ4U, Biomedica, Vienna, Austria) following the manufacturer’s recommendations, as published. Absorbance was measured at 450 nm (at 620 nm as reference) using the multimode plate reader Tecan Infinite 200 Pro (Zurich, Switzerland). Cytotoxicity was expressed as IC50 values calculated from full dose-response curves using the 4 parameter nonlinear regression model of GraphPad Prism 8 software (La Jolla, CA, USA).
# HaCat keratinocytes = assay: 72 h cell viability (MTT) assay; type: cell-based, human
# Procedure: as §5
# BEC endothelial cells = assay: 72 h cell viability (MTT) assay; type: cell-based, human
# Procedure: as §5
# [5] = parameters: method as in PMID 7895599; conditions: patients; cited from earlier work
# albumin = biological target: T1, albumin (Bos taurus, UniProt P02769); assay: Albumin binding in fetal calf serum by SEC-ICP-MS; type: in vitro ADME; conditions: fetal calf serum 37 °C, 100 μM
# T1 construct: tissue Sigma-Aldrich; host or cells: fetal calf serum
# T1 sequence (P02769 25-607): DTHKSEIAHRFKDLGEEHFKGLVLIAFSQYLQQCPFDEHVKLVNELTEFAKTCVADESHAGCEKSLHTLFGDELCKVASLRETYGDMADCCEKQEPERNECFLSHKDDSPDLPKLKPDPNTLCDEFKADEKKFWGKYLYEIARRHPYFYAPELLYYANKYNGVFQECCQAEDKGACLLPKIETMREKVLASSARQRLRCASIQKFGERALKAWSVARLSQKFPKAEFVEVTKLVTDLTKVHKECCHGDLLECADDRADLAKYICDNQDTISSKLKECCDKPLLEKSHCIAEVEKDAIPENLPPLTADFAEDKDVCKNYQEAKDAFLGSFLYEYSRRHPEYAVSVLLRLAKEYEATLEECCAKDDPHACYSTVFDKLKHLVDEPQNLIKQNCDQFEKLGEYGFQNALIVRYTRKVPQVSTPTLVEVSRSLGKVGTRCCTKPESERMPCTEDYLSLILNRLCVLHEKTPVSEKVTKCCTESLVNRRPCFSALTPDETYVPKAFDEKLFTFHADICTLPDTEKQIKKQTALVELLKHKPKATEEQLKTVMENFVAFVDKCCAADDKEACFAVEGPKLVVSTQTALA
# Procedure: Fetal calf serum was purchased from Sigma-Aldrich and buffered with 150 mM phosphate buffer (pH 7.4) to guarantee a stable pH. The platinum(IV) complexes were dissolved in 150 mM phosphate buffer (pH 7.4) to 1 mM and diluted 1:10 in serum to obtain a final concentration of 100 μM. The samples were then incubated in the autosampler at 37 °C for 24 h and analyzed at 0 h, 1 h, 4 h, and 24 h. Between each sample, a pure water blank was measured. For SEC-ICP-MS measurements, an Agilent 1260 Infinity system coupled to an Agilent 7800 ICP-MS equipped with a dynamic reaction cell was used. Oxygen (purity 5.5, Messer AustriaGmbH, Gumpoldskirchen, Austria) was used as reaction gas at 30% and 0.9 L/min flow.
# [6] = Tissue/organ platinum distribution in CT26 allograft mice; type: in vivo, BALB/c mice; conditions: two i.v. doses in one week, 24 h after second dosing
# Procedure: as §3
# A2780/Cis cells = assay: 72 h cell viability (MTT) assay; type: cell-based, human
# Procedure: as §5
# A2780 cells = assay: 72 h cell viability (MTT) assay; type: cell-based, human; conditions: A2780, 72 h continuous exposure; read-out: IC50 value (95% confidence interval)
# Procedure: as §5
smiles,measurement,setting,value
"O=C1[O][Pt]2([NH][C@@H]3CCCC[C@H]3[NH]2)[O]C1=O [oxaliplatin, reference compound]",intracellular accumulation in HCT116/OxR as compared to parental HCT116,[1],significantly reduced
same,DNA damage (pH2AX) in healthy organs,[2],induced pH2AX-positive cells in both lung and kidney samples
same,maximum tolerated dose (MTD),Tolerability in mice,9 mg/kg
same,tumor doubling time extended,CT26 allografts,1.3 fold
same,maximal tumor growth inhibition,CT26 allografts,51.3%
same,tumor volumes as compared to solvent controls,CT26 allografts,significantly reduced tumor volumes
same,number of mitotic tumor cells as compared to solvent controls,CT26 tumor tissue; one week of therapy,significantly reduced
same,GSH content in malignant tissue,CT26 tumor tissue; one week of therapy,distinctly reduced the content of GSH
same,"serum half-life (fast), two-phase decay model","[3]; single equimolar dose, mice",0.1528 h
same,"serum half-life (slow), two-phase decay model","[3]; single equimolar dose, mice",15.38 h
same,"serum half-life, one-phase decay model","[3]; single equimolar dose, mice",0.2624 h
same,impact on cellular GSH content,[4],did not alter the GSH content
same,IC50,HCT116/OxR cells,> 10 µM
same,IC50,HCT116 cells,0.58 µM
same,IC50,HaCat keratinocytes,3.4 µM
same,IC50,BEC endothelial cells,10.3 µM
"CCCCS(=N)(=O)CC[C@H](N)C(=O)O (stereo partly drawn) [BSO, L-Buthionine-S,R-sulfoximine]",plasma half-life,[5],< 2 h
"CCCCS(=N)(=O)CCC(NC(=O)[O][Pt]1([O]C(=O)NCCCCCN2C(=O)C=CC2=O)[O]C(=O)C(=O)[O]1)C(=O)O.NC1CCCCC1N (mixture of isomers) [BSO-OxMal, (OC-6-24)-((1 S)-3-(Butylsulfonimidoyl)-1-carboxypropyl)carbamato(1 R,2 R)-1,2-cyclohexanediamino(5-(2,5-dioxo-2,5-dihydro-1H-pyrrol-1-yl)pentyl)carbamatooxalatoplatinum(IV)]",bound to albumin fraction,albumin; t 0 h,76%
same,free (low molecular weight fraction),albumin; t 0 h,24%
same,bound to albumin fraction,albumin; t 1 h,100%
same,free (low molecular weight fraction),albumin; t 1 h,0%
same,bound to albumin fraction,albumin; t 4 h,100%
same,free (low molecular weight fraction),albumin; t 4 h,0%
same,bound to albumin fraction,albumin; t 24 h,97%
same,free (low molecular weight fraction),albumin; t 24 h,3%
same,DNA damage (pH2AX) in healthy organs,[2],avoids renal DNA damage
same,tumor doubling time extended,CT26 allografts,1.8 fold
same,overall survival,"CT26 allografts; Kaplan Meier, Mantel-Cox test",significantly increased overall survival
same,maximal tumor growth inhibition,CT26 allografts,61.2%
same,tumor volumes as compared to solvent controls,CT26 allografts,significantly reduced tumor volumes
same,number of mitotic tumor cells as compared to solvent controls,CT26 tumor tissue; one week of therapy,significantly reduced
same,DNA damage (pH2AX) in tumor,CT26 tumor tissue; non-necrotic parts of the tumor,distinctly enhanced DNA damage as compared to oxaliplatin
same,Ki-67 antiproliferative effect,"CT26 tumor tissue; non-necrotic tumor regions, one week of therapy",significantly stronger antiproliferative effect
same,GSH content in malignant tissue,CT26 tumor tissue; one week of therapy,significantly stronger effect
same,serum half-life higher as compared to oxaliplatin,[3]; depending on the regression model used,more than 10 fold
same,"serum half-life (fast), two-phase decay model","[3]; single equimolar dose, mice",1.217 h
same,"serum half-life (slow), two-phase decay model","[3]; single equimolar dose, mice",22.28 h
same,"serum half-life, one-phase decay model","[3]; single equimolar dose, mice",3.968 h
same,increase of AUC (total area) as compared to oxaliplatin,"[3]; single equimolar dose, mice",> 12 fold
same,increased serum platinum levels in comparison to oxaliplatin,[6],more than 20 fold
"N.N.[Cl][Pt][Cl] [cisplatin, reference compound]",IC50,"A2780/Cis cells; A2780/Cis, 72 h continuous exposure, read-out: IC50 value (95% confidence interval)",7.7 µM
same,resistance factor,A2780/Cis cells; IC50 A2780/Cis divided by IC50 A2780,4.1
same,IC50,A2780 cells,1.9 µM

# From publication PMC9814792 (Communications Chemistry, 2022)
